# Source: patent US20250268884A1, “Deuterated Domperidone for Treating Gastroparesis” (CinDome Pharma, Inc., priority 2022, published 2025)
# Tested on: adults with idiopathic or diabetic gastroparesis
# Test: Clinical Grading Assessment Scale / CPGAS, Day 14, Phase 2a
# Assay type: in vivo, human
# Conditions: Day 14, ITT; for CPGAS score, investigator, mean (SD) / CPGAS score, subject, mean (SD): scale +7 to −7
# Excerpt: For assessment of global clinical response, the following question was utilized at Day 14: “In thinking about the last 2 weeks, how would you say your stomach/gastroparesis-related problems/symptoms have been compared to the period before you started treatment on this study?” Responses were the following: improved, no change, or worsened. Subjects were asked to quantify their therapeutic response using the Clinical Patient Grading Assessment Scale. Subjects picked a number over a range (+7=completely better; 0=no change; −7=very much worse) that best answered the question.
compound,measurement,setting,value
"[2H]c1c([2H])c([2H])c2c([nH]c(=O)n2CCCN2CCC(n3c(=O)[nH]c4cc(Cl)ccc43)CC2)c1[2H] [Deudomperidone, 1-{3-[4-(5-chloro-2-oxo-2,3-dihydro-1H-1,3-benzodiazol-1-yl)piperidin-1yl]propyl}-2,3-dihydro(4,5,6,7-D4)-1H-1,3-benzodiazol-2-one]","Clinical Grading Assessment Scale, investigator response: Improved","5 mg BID, N′ = 9",6 (66.7) n (%)
same,"Clinical Grading Assessment Scale, investigator response: No change","5 mg BID, N′ = 9",3 (33.3) n (%)
same,"Clinical Grading Assessment Scale, investigator response: Worsened","5 mg BID, N′ = 9",0 (0.0) n (%)
same,"Clinical Grading Assessment Scale, subject response: Improved","5 mg BID, N′ = 9",5 (55.6) n (%)
same,"Clinical Grading Assessment Scale, subject response: No change","5 mg BID, N′ = 9",4 (44.4) n (%)
same,"Clinical Grading Assessment Scale, subject response: Worsened","5 mg BID, N′ = 9",0 (0.0) n (%)
same,"CPGAS score, investigator, mean (SD)",5 mg BID,2.2 (2.05)
same,"CPGAS score, subject, mean (SD)",5 mg BID,2.1 (2.26)
same,"Clinical Grading Assessment Scale, subject response: Improved","10 mg BID, N′ = 23",17 (73.9) n (%)
same,"Clinical Grading Assessment Scale, subject response: No change","10 mg BID, N′ = 23",5 (21.7) n (%)
same,"Clinical Grading Assessment Scale, subject response: Worsened","10 mg BID, N′ = 23",1 (4.3) n (%)
same,"Clinical Grading Assessment Scale, investigator response: Improved","10 mg BID, N′ = 30",22 (73.3) n (%)
same,"Clinical Grading Assessment Scale, investigator response: No change","10 mg BID, N′ = 30",8 (26.7) n (%)
same,"Clinical Grading Assessment Scale, investigator response: Worsened","10 mg BID, N′ = 30",0 (0.0) n (%)
same,"CPGAS score, investigator, mean (SD)",10 mg BID,2.5 (1.98)
same,"CPGAS score, subject, mean (SD)",10 mg BID,3.0 (2.70)
same,"Clinical Grading Assessment Scale, subject response: Improved","20 mg QD, N′ = 14",9 (64.3) n (%)
same,"Clinical Grading Assessment Scale, subject response: No change","20 mg QD, N′ = 14",5 (35.7) n (%)
same,"Clinical Grading Assessment Scale, subject response: Worsened","20 mg QD, N′ = 14",0 (0.0) n (%)
same,"Clinical Grading Assessment Scale, investigator response: Improved","20 mg QD, N′ = 15",11 (73.3) n (%)
same,"Clinical Grading Assessment Scale, investigator response: No change","20 mg QD, N′ = 15",4 (26.7) n (%)
same,"Clinical Grading Assessment Scale, investigator response: Worsened","20 mg QD, N′ = 15",0 (0.0) n (%)
same,"CPGAS score, investigator, mean (SD)",20 mg QD,2.9 (2.26)
same,"CPGAS score, subject, mean (SD)",20 mg QD,2.9 (2.62)
